# Reference: US20050065166A1, “Substituted pyrimidines” (priority 2001, published 2005)
row,melting point,SMILES
1,127 °C,Cc1nc([S+]([O-])Cc2ccc(Cl)cc2)nc2c1CCCC2 (stereo not drawn)
2,151 °C,Cc1nc(S(=O)(=O)Cc2ccc(Cl)cc2)nc2c1CCCC2
3,48 °C,Cc1nc(SCc2ccc(Cl)cc2)nc2c1CCCC2
